Data as given in US10577383B2, “Macrocyclic inhibitors of myeloperoxidase” (BRISTOL-MYERS SQUIBB COMPANY, priority 2016, dated 2020).

Key:
myeloperoxidase [1] = molecular target: T1, myeloperoxidase (Homo sapiens (Human), UniProt P05164); assay: MPO Chlorination Assay (APF Assay); assay type: biochemical; conditions: MPO chlorination activity, 100 mM KPi (pH 7.4), 120 mM NaCl, ten minute preincubation; potency ranges defined in nM
Experimental: (§1) [formula] where A=minimal Y value (activity level of inhibited sample), B=maximal Y value (activity level of uninhibited sample), C=Log IC50, D=Hill Slope, x=concentration of inhibitor. MPO Chlorination Assay (APF Assay) MPO chlorination activity was measured in 100 mM KPi (pH 7.4) by utilizing the non-fluorescent reagent Aminophenyl fluorescein (APF, Invitrogen Cat. #A36003). APF is cleaved by (—OCl) to yield the fluorescent compound fluorescein. Reactions were carried out in 50 μL total volume by adding a 25 μL mixture of 200 pM myeloperoxidase and 120 mM NaCl to 100 nL inhibitor in 100% DMSO in a 384 well, non-binding surface clear bottom plate (Corning #3655). Enzyme, inhibitor, and chloride were preincubated for ten minutes at room temperature.
After the ten minute preincubation, 25 μL of an APF mixture containing […], 120 mM NaCl and 10 μM H2O2 was added to the plate using the internal dispensing system of a Hammatsu FDSS 6000. Kinetic determinations were carried out immediately on the FDSS 6000 (3 minute kinetic read, 1 read every second, ex: 485 nm, em: 535 nm). IC50 values for inhibitors were calculated by taking the slope of the linear portion of the kinetic measurement (20 seconds to 80-120 secs).
(§2) IC50 values were calculated by determining the slope of the linear portion of the kinetic trace (180-540 secs), and using that calculated slope to determine % inhibition occurring at each concentration of inhibitor using the following equation:
(§3) [formula] where A=minimal Y value (activity level of inhibited sample), B=maximal Y value (activity level of uninhibited sample), C=Log IC50, D=Hill Slope, x=concentration of inhibitor. EPX Bromination Assay

myeloperoxidase [2] = molecular target: T1, myeloperoxidase; assay: MPO Peroxidation Assay (Amplex Red Assay); assay type: biochemical; conditions: MPO peroxidation activity, 100 mM KPi (pH 7.4), ten minute preincubation; potency ranges defined in nM
Experimental: MPO Peroxidation Assay (Amplex Red Assay)
MPO peroxidation activity was measured in 100 mM KPi (pH 7.4) by utilizing the non-fluorescent reagent Amplex Red (Invitrogen Cat. #A12222) which can be oxidized to the highly fluorescent resorufin. Amplex Red is oxidized by the peroxidase action of MPO to resorufin. Reactions were carried out in 50 μL total volume by adding a 25 μL mixture of 200 pM myeloperoxidase and 40 nM H2O2 (Sigma #349887) to 100 nL inhibitor in 100% DMSO in a 384 well Perkin Elmer Optiplate. Enzyme and compound were preincubated for ten minutes at room temperature.
After the ten minute preincubation, 25 μL of an Amplex Red mixture containing 200 μM Amplex Red and 10 mM H2O2 was added to the plate. Kinetic determinations were carried out immediately on a Perkin Elmer Envision (15 minute kinetic read, Ex: 535 nm, Em: 590 nm).
as §2, §1

EPX = EPX (Homo sapiens (Human), UniProt P11678); assay: EPX Bromination Assay; assay type: biochemical; conditions: EPX bromination activity, 100 mM KPi (pH 7.4), 3-bromo tyrosine formation
Experimental: as §3
EPX bromination activity was measured in 100 mM KPi (pH 7.4) by monitoring the H2O2 catalyzed formation of 3-bromo tyrosine from tyrosine and potassium bromide. A 50 μl mixture of 0.6 μM EPX (Lee Biosolutions Cat. #342-60) was added to 100 nL inhibitor in 100% DMSO in a 384 well REMP plate. Enzyme and compound were preincubated for ten minutes at room temperature.
After the ten minute preincubation of enzyme and inhibitor, 25 μL of a mixture containing 400 μM tyrosine and 1200 μM potassium bromide was added to the plate containing enzyme and inhibitor, followed by the addition of 25 μl of 20 μM H2O2. The reaction was allowed to proceed for 15 minutes, at which time it was quenched with 10 μL of 20% TCA. The final concentrations of all components were 0.3 μM EPX, 100 μM tyrosine, […], 5 μM H2O2, 0.1% DMSO, 2.0% TCA.
IC50 values were determined by determining the peak areas of 3-bromo-tyrosine present at the end of the 15 minute reaction and fitting the data to:
[formula] where A=minimal Y value (activity level of inhibited sample), B=maximal Y value (activity level of uninhibited sample), C=Log IC50, D=Hill Slope, x=concentration of inhibitor.
Reversed-phase analysis was performed on a Waters Acquity Ultra Performance LC system using an Acquity UPLC BEH C18 […], 2.1×50 mm analytical column. The column was maintained at 60° C. Samples were eluted using a gradient of 0%-100% B over 2.5 minutes, followed by equilibration with 100% A for 1 minute where A consisted of 0.1% TFA and B consisted of 90% MeOH/0.1% TFA at a flow rate of 0.6 mL/min. The retention time of 3-bromo tyrosine was 1.22 min

[3] = the molecule shown is the open-chain precursor; cc_pd bond; 17-membered ring; PdCl2(dppf)-CH2Cl2/K2CO3; dioxane/H2O; 1.28 mM; 85.0 °C

T1 sequence (P05164 49-745): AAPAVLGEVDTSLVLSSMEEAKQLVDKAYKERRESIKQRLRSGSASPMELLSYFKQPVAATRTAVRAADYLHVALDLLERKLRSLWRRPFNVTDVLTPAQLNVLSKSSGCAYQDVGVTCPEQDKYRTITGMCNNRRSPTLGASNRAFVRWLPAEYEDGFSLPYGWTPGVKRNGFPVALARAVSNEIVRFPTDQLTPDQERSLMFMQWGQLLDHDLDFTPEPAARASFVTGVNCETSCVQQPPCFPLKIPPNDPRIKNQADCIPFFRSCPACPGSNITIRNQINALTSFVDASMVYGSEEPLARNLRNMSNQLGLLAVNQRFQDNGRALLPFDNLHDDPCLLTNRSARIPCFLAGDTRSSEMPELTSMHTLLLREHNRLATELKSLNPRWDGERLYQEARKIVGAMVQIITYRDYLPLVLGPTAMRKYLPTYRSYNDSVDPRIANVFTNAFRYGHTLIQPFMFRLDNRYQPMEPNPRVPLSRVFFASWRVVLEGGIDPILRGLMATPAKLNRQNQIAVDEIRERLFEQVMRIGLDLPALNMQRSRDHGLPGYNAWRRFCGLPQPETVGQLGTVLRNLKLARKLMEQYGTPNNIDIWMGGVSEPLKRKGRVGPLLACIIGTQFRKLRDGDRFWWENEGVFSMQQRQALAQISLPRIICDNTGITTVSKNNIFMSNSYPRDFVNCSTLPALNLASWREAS
EPX, sequence (P11678 251-715): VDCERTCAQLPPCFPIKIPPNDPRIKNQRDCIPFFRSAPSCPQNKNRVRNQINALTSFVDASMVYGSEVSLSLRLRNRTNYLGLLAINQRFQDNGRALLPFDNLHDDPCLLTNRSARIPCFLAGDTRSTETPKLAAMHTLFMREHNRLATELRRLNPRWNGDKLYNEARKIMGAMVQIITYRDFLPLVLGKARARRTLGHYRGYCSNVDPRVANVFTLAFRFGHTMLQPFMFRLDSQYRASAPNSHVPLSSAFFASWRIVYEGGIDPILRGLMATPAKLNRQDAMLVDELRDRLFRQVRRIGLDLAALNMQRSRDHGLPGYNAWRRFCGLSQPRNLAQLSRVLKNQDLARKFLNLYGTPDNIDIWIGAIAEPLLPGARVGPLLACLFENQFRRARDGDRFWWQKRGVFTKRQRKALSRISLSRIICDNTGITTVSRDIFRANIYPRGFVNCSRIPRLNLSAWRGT
EPX, sequence (P11678 140-250): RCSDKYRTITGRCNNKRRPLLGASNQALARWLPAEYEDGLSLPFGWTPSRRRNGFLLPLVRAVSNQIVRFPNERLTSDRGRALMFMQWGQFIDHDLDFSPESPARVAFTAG

Compound | IC50 (myeloperoxidase [1]) [nM] | IC50 (myeloperoxidase [2]) [nM] | IC50 (EPX) [nM] | ring closure, isolated yield [3] [%]
Nc1cc(C2CCNCCc3cccc(c3)Oc3cccc(c3)Cn3cc2cn3)c2nn[nH]c2n1 (single isomer, unassigned) [Example 5, 7-{18-oxa-3,4,10-triazatetracyclo[17.3.1.1^3,^6.1^13,^1^7]pentacosa-1(23),4,6(25),13,15,17(24),19,21-octaen-7-yl}-3H-[1,2,3]triazolo[4,5-b]pyridin-5-amine] | 1 to 100 | 1 to 100 | 37 | –
Nc1cc(C2CCNCC3(CC3)COc3cccc(c3)Cn3cc2cn3)c2nn[nH]c2n1 (single isomer, unassigned) [Example 20, 7-{14′-Oxa-3′,4′,10′-triazaspiro[cyclopropane-1,12′-tricyclo[13.3.1.1^3,^6]icosane]-1′(19′),4′,6′(20′),15′,17′-pentaen-7′-yl}-3H-[1,2,3]triazolo[4,5-b]pyridin-5-amine] | 101 to 999 | 101 to 999 | 63 | –
C[C@@H](Cc1cccc(Oc2cccc(Cn3cc(B4OC(C)(C)C(C)(C)O4)cn3)c2)c1)N(C/C=C(\I)c1cc(NC(c2ccccc2)(c2ccccc2)c2ccccc2)nc2c1nnn2C(c1ccccc1)(c1ccccc1)c1ccccc1)C(=O)OC(C)(C)C | – | – | – | 36
Nc1cc(C2CCNC3CCC(CC3)COc3cccc(c3)Cn3cc2cn3)c2nn[nH]c2n1 (stereo not shown) [Example 18, 7-{3-Oxa-10,11,17-triazatetracyclo[16.2.2.1^4,^8.1^1^0,^13]tetracosa-4,6,8(24),11,13(23)-pentaen-14-yl}-3H-[1,2,3]triazolo[4,5-b]pyridin-5-amine] | 1 to 100 | 101 to 999 | 220 | –
Nc1cc(C2CCNCc3cccc(c3)COc3cccc(c3)Cn3cc2cn3)c2nn[nH]c2n1 (stereo not shown) [Example 2, 7-{18-oxa-3,4,10-triazatetracyclo[17.3.1.1^3,^6.1^12,^1^6]pentacosa-1(23),4,6(25),12,14,16(24),19,21-octaen-7-yl}-3H-[1,2,3]triazolo[4,5-b]pyridin-5-amine] | 1 to 100 | 101 to 999 | 190 | –
